For the assay, the target named is T1, Human MGAT-2 (Homo sapiens, UniProt Q3SYC2).
T1 construct: made in house; host or cells: Sf9 cells (membrane preparation)
The assay can be described thus: MGAT LCMS Assay. Format: biochemical. The procedure, abridged:
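Robotic enzyme reaction shaken 10 min, quenched with ice-cold methanol containing 1 μg/mL 1,2-distearoyl-rac-glycerol internal standard. Diolein product measured by LC/MS (C8 column, 65° C, APCI(+) triple quad). IC50 derived from diolein/internal standard peak area ratio.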

The mark [1] stands for this setting: human MGAT2 membranes expressed in Sf9 cells, 100 μM 2-oleoylglycerol, 15 μM oleoyl-coenzyme A, read-out: h-MGAT LCMS IC50.

Read-outs that look alike come from different tables or passages of the source.

The IC50 is the point on the concentration scale where inhibition reaches its midpoint.

T1 sequence (Q3SYC2 whole entry): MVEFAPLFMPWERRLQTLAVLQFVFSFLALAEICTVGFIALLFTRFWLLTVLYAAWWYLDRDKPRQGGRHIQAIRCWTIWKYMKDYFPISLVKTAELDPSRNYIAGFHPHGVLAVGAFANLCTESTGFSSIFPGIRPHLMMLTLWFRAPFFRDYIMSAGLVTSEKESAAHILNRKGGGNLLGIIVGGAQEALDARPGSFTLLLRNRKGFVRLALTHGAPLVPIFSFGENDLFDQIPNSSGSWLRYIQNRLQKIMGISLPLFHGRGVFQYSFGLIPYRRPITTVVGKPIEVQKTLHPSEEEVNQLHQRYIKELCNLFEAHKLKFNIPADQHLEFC

For the molecule `CCc1cnc(-c2cc(-c3ccc(CCC4CC4)cc3)[nH]c(=O)c2-c2nn[nH]n2)s1` [Example 149, 6-(4-(2-Cyclopropylethyl)phenyl)-4-(5-ethylthiazol-2-yl)-3-(2H-tetrazol-5-yl)pyridin-2(1H)-one], under setting [1], the IC50 is 52 nM.
Molecule `CCc1ccc(-c2cc(-c3ccc(OCCCCCC(F)(F)F)cc3C(F)(F)F)[nH]c(=O)c2-c2nn[nH]n2)s1` [Example 151, 4-(5-Ethylthiophen-2-yl)-3-(2H-tetrazol-5-yl)-6-(4-((6,6,6-trifluorohexyl)oxy)-2-(trifluoromethyl)phenyl)pyridin-2(1H)-one] gave an IC50 of 0.3 nM.
In the case of `CCc1ccc(-c2cc(-c3ccc(OCCCC(F)(F)F)cc3F)[nH]c(=O)c2-n2nn[nH]c2=O)s1` [Example 152, 4-(5-Ethylthiophen-2-yl)-6-(2-fluoro-4-(4,4,4-trifluorobutoxy)phenyl)-3-(5-oxo-4,5-dihydro-1H-tetrazol-1-yl)pyridin-2(1H)-one], the IC50 under setting [1] came to 23 nM.
As to `Cc1ccc(-c2cc(-c3ccc(OCCCC(F)(F)F)cc3)[nH]c(=O)c2-n2nn[nH]c2=O)cc1` [Example 153, 3-(5-Oxo-4,5-dihydro-1H-tetrazol-1-yl)-4-(p-tolyl)-6-(4-(4,4,4-trifluorobutoxy)phenyl)pyridin-2(1H)-one], the IC50 under setting [1] came to 49 nM.
Still for that read-out and setting: as for `CCc1ccc(-c2cc(-c3ccc(OCCCCCC(F)(F)F)cc3C(F)(F)F)[nH]c(=O)c2C(=O)NS(=O)(=O)C2CC2)s1` [Example 154, N-(Cyclopropanesulfonyl)-4-(5-ethylthiophen-2-yl)-2-oxo-6-{4-[(6,6,6-trifluorohexyl)oxy]-2-(trifluoromethyl)phenyl}-1,2-dihydropyridine-3-carboxamide], the figure is 2 nM; as for `O=c1[nH]c(-c2ccc(OCCCCCC(F)(F)F)cc2C(F)(F)F)cc(-c2ccn(CC3CC3)n2)c1-c1nn[nH]n1` [Example 155, 4-[1-(Cyclopropylmethyl)-1H-pyrazol-3-yl]-3-(2H-1,2,3,4-tetrazol-5-yl)-6-{4-[(6,6,6-trifluorohexyl)oxy]-2-(trifluoromethyl)phenyl}-1,2-dihydropyridin-2-one], 3 nM.
On the same count and under the same terms, as for `CCc1ccc(-c2cc(-c3ccc(OCCCCCC(F)(F)F)cc3)[nH]c(=O)c2-n2nn[nH]c2=O)s1` [Example 156, 4-(5-Ethylthiophen-2-yl)-3-(5-oxo-4,5-dihydro-1H-1,2,3,4-tetrazol-1-yl)-6-{4-[(6,6,6-trifluorohexyl)oxy]phenyl}-1,2-dihydropyridin-2-one], the figure is 143 nM; as for `CCc1ccc(-c2cc(-c3ccc(OCCCCCC(F)(F)F)cc3F)[nH]c(=O)c2-n2nn[nH]c2=O)s1` [Example 157, 4-(5-Ethylthiophen-2-yl)-6-{2-fluoro-4-[(6,6,6-trifluorohexyl)oxy]phenyl}-3-(5-oxo-4,5-dihydro-1H-1,2,3,4-tetrazol-1-yl)-1,2-dihydropyridin-2-one], 46 nM; as for `O=c1[nH]c(-c2ccc(OCCCCCC(F)(F)F)cc2)cc(-c2nn(CC3CC3)cc2Cl)c1-n1nn[nH]c1=O` [Example 158, 4-[4-Chloro-1-(cyclopropylmethyl)-1H-pyrazol-3-yl]-3-(5-oxo-4,5-dihydro-1H-1,2,3,4-tetrazol-1-yl)-6-{4-[(6,6,6-trifluorohexyl)oxy]phenyl}-1,2-dihydropyridin-2-one], 6 nM.
Still for that read-out and setting: as for `Cc1ccc(-c2cc(-c3ccc(OCCCCCC(F)(F)F)cc3F)[nH]c(=O)c2-n2nn[nH]c2=O)cc1` [Example 159, 6-{2-Fluoro-4-[(6,6,6-trifluorohexyl)oxy]phenyl}-4-(4-methylphenyl)-3-(5-oxo-4,5-dihydro-1H-1,2,3,4-tetrazol-1-yl)-1,2-dihydropyridin-2-one], the figure is 38 nM.
Consider `O=C(NS(=O)(=O)C1CC1)c1c(-c2ccn(CC3CC3)n2)cc(-c2ccc(OCCCCCC(F)(F)F)cc2C(F)(F)F)[nH]c1=O` [Example 160, N-(Cyclopropanesulfonyl)-4-[1-(cyclopropylmethyl)-1H-pyrazol-3-yl]-2-oxo-6-{4-[(6,6,6-trifluorohexyl)oxy]-2-(trifluoromethyl)phenyl}-1,2-dihydropyridine-3-carboxamide], for which the IC50 under setting [1] was determined as 12 nM.
The same measure, in the same setting: as for `CCc1ccc(-c2cc(-c3ccc(C4CCC(C)(C)CC4)cc3)[nH]c(=O)c2-c2nn[nH]n2)s1` [Example 161, 6-[4-(4,4-Dimethylcyclohexyl)phenyl]-4-(5-ethylthiophen-2-yl)-3-(2H-1,2,3,4-tetrazol-5-yl)-1,2-dihydropyridin-2-one], the figure is 76 nM; as for `O=c1[nH]c(-c2ccc(OCCCCCC(F)(F)F)cc2)cc(-c2ccc(OC(F)F)cc2)c1-n1nn[nH]c1=O` [Example 162, 4-[4-(Difluoromethoxy)phenyl]-3-(5-oxo-4,5-dihydro-1H-1,2,3,4-tetrazol-1-yl)-6-{4-[(6,6,6-trifluorohexyl)oxy]phenyl}-1,2-dihydropyridin-2-one], 1970 nM.
The same measure, in the same setting: as for `CCc1ccc(-c2cc(-c3ccc(C4=CCC(C(C)(C)C)CC4)cc3)[nH]c(=O)c2-c2nn[nH]n2)s1` (stereo not drawn) [Example 163, 6-[4-(4-tert-Butylcyclohex-1-en-1-yl)phenyl]-4-(5-ethylthiophen-2-yl)-3-(2H-1,2,3,4-tetrazol-5-yl)-1,2-dihydropyridin-2-one], the figure is 69 nM; as for `CCCC1CC=C(c2ccc(-c3cc(-c4ccc(CC)s4)c(-c4nn[nH]n4)c(=O)[nH]3)cc2)CC1` (stereo not drawn) [Example 164, 4-(5-Ethylthiophen-2-yl)-6-[4-(4-propylcyclohex-1-en-1-yl)phenyl]-3-(2H-1,2,3,4-tetrazol-5-yl)-1,2-dihydropyridin-2-one], 55 nM.
The same measure, in the same setting: as for `O=c1cc(-c2ncc(C3CC3)s2)cc(-c2ccc(OCCCCCC(F)(F)F)cc2F)[nH]1` [Example 165, 4-(5-Cyclopropyl-1,3-thiazol-2-yl)-6-{2-fluoro-4-[(6,6,6-trifluorohexyl)oxy]phenyl}-1,2-dihydropyridin-2-one], the figure is 420 nM; as for `CCc1cnc(-c2cc(-c3ccc(OCCCCCC(F)(F)F)cc3F)[nH]c(=O)c2)s1` [Example 166, 4-(5-Ethyl-1,3-thiazol-2-yl)-6-{2-fluoro-4-[(6,6,6-trifluorohexyl)oxy]phenyl}-1,2-dihydropyridin-2-one], 70 nM.
With `CCCC1CCC(c2ccc(-c3cc(-c4ccc(CC)s4)c(-c4nn[nH]n4)c(=O)[nH]3)cc2)CC1` (stereo not drawn) [Example 167, 4-(5-Ethylthiophen-2-yl)-6-[4-(4-propylcyclohexyl)phenyl]-3-(2H-1,2,3,4-tetrazol-5-yl)-1,2-dihydropyridin-2-one], under setting [1], the IC50 is 39 nM.
The same measure, in the same setting: as for `O=c1[nH]c(-c2ccc(OCCCCCC(F)(F)F)cc2F)cc(-c2ccn(CC3CC3)n2)c1-n1nn[nH]c1=O` [Example 168, 4-[1-(Cyclopropylmethyl)-1H-pyrazol-3-yl]-6-{2-fluoro-4-[(6,6,6-trifluorohexyl)oxy]phenyl}-3-(5-oxo-4,5-dihydro-1H-1,2,3,4-tetrazol-1-yl)-1,2-dihydropyridin-2-one], the figure is 373 nM; as for `O=c1[nH]c(-c2ccc(OCCCCCC(F)(F)F)cc2F)cc(-c2nn(CC3CC3)cc2Cl)c1-n1nn[nH]c1=O` [Example 169, 4-[4-Chloro-1-(cyclopropylmethyl)-1H-pyrazol-3-yl]-6-{2-fluoro-4-[(6,6,6-trifluorohexyl)oxy]phenyl}-3-(5-oxo-4,5-dihydro-1H-1,2,3,4-tetrazol-1-yl)-1,2-dihydropyridin-2-one], 9 nM.
Turning to `CC1(C)CC=C(c2ccc(-c3cc(-c4ccn(CC5CC5)n4)c(-c4nn[nH]n4)c(=O)[nH]3)cc2)CC1` [Example 170, 4-[1-(Cyclopropylmethyl)-1H-pyrazol-3-yl]-6-[4-(4,4-dimethylcyclohex-1-en-1-yl)phenyl]-3-(2H-1,2,3,4-tetrazol-5-yl)-1,2-dihydropyridin-2-one], the IC50 under setting [1] stood at 17 nM.
On the same count and under the same terms, as for `CC(C)(C)C1CC=C(c2ccc(-c3cc(-c4ccn(CC5CC5)n4)c(-c4nn[nH]n4)c(=O)[nH]3)cc2)CC1` (stereo not drawn) [Example 171, 6-[4-(4-tert-Butylcyclohex-1-en-1-yl)phenyl]-4-[1-(cyclopropylmethyl)-1H-pyrazol-3-yl]-3-(2H-1,2,3,4-tetrazol-5-yl)-1,2-dihydropyridin-2-one], the figure is 6 nM; as for `CC1(C)CCC(c2ccc(-c3cc(-c4ccn(CC5CC5)n4)c(-c4nn[nH]n4)c(=O)[nH]3)cc2)CC1` [Example 172, 4-[1-(Cyclopropylmethyl)-1H-pyrazol-3-yl]-6-[4-(4,4-dimethylcyclohexyl)phenyl]-3-(2H-1,2,3,4-tetrazol-5-yl)-1,2-dihydropyridin-2-one], 26 nM; as for `CCCC1CC=C(c2ccc(-c3cc(-c4ccn(CC5CC5)n4)c(-c4nn[nH]n4)c(=O)[nH]3)cc2)CC1` (stereo not drawn) [Example 173, 4-[1-(Cyclopropylmethyl)-1H-pyrazol-3-yl]-6-[4-(4-propylcyclohex-1-en-1-yl)phenyl]-3-(2H-1,2,3,4-tetrazol-5-yl)-1,2-dihydropyridin-2-one], 57 nM.

The values are drawn from US9974778B2, “Substituted pyridinones as MGAT2 inhibitors” (BRISTOL-MYERS SQUIBB COMPANY, priority 2014, dated 2018).
